Among the data in patent US20250346597A1, “CONDENSED HETEROCYCLIC COMPOUNDS AS INHIBITOR OF DIACYLGLYCEROL KINASES” (BEONE MEDICINES I GMBH, priority 2023, published 2025) are IC50 values, retold here.

One assay concerns the target DGKζ (Homo sapiens (Human), UniProt Q13574). The assay is described as follows: Biochemical DGK IC50 assay (ADP-Glo, lipid micelle substrate), DGKζ. To be noted: full length DGKζ 0.5 nM, ATP 140 μM, DAG 80 μM. On the procedure: (§1) Enzymatic reactions of DGKζ, DGKα and DGKδ were performed using ADP-Glo assay with lipid micelle substrate. […] Full length DGKα (D21-10BG, SignalChem) and full length DGKδ (D23-10G, SignalChem) were purchased. Lipid micelle was prepared by dissolving DAG (Sigma, 317505-10MG) and PS (Sigma, P7769-100MG) with chloroform which was furtherly removed by rotary evaporation. The resulted product was resuspended in buffer containing 25 mM HEPES pH 7.0, 0.5 mM EDTA and 160 mM Octyl P-D glucopyranoside by vigorous mixing and ultrasonic (IID, Scientz).
(§2) The inhibition activities testing for the compound disclosed herein were carried out at room temperature in assay buffer containing 50 mM HEPES, 10 mM MgCl2, 0.01% BSA, 0.1 mM Na3VO4, 0.005% Tween-20 and 0.01 mM CaCl2. Compounds in DMSO were dispensed into wells of a black 384 well plate (Corning 4514) using D300e digital dispenser (Tecan). […] 3 μL 2× enzyme solution was added to wells. […] After 1 hour reaction, 5 μL ADP-Glo reagent (Promga V9101) was added and incubated for 40 minutes. 10 μL Kinase Detection reagent was added and incubated for 30 minutes. Luminescence was measured on a microplate reader (PHERAstar FSX, BMG labtech). The IC50s are calculated based on inhibition of enzyme activity in the presence of increasing concentrations of compounds.
Human His-TEV-DGK-zeta-pFastBac1 and human baculovirus samples was generated using the Bac-to-Bac baculovirus expression system (Invitrogen) according to the manufacturer's protocol. The DNA used for expression of DGK-zeta, have SEQ ID Nos: 1. Baculovirus amplification was achieved using infected SF9 cells at 1:2000 virus/cells ratios, and grown for 96 hours at 27° C. post-transfected.
The expression scaled up for each protein was carried out in the […] from CORNING. 4 L of 3×10^6 cells/mL Sf9 cells (Expression System, Invitrogen) grown in SF900™ II SFM insect medium (Expression System) was infected with virus stock at 1:200 virus/cells ratio, and grown for 48 hours at 27° C. post-transfection. The infected cell culture was harvested by centrifugation at 6000 rpm for 15 min 4° C. in a SORVALL LYNX6000 centrifuge. The cell pellets were stored at −80° C.
Full length human DGKζ produced as described above, was purified from Sf9 baculovirus-infected insect cell paste. The cells were lysed using sonication method, and the lysates were clarified by centrifugation.
On the technique in general: ADP-Glo turns the ADP formed in a reaction into a luminescent signal.

A further assay concerns the target DGKα (Homo sapiens (Human), UniProt P23743). Briefly: Biochemical DGK IC50 assay (ADP-Glo, lipid micelle substrate), DGKα. Note: full length DGKα 7.5 nM. To be noted: full length DGKα […], ATP 140 μM, DAG 80 μM. On the procedure:
as §1, §2

Chain of DGKα (P23743 whole entry): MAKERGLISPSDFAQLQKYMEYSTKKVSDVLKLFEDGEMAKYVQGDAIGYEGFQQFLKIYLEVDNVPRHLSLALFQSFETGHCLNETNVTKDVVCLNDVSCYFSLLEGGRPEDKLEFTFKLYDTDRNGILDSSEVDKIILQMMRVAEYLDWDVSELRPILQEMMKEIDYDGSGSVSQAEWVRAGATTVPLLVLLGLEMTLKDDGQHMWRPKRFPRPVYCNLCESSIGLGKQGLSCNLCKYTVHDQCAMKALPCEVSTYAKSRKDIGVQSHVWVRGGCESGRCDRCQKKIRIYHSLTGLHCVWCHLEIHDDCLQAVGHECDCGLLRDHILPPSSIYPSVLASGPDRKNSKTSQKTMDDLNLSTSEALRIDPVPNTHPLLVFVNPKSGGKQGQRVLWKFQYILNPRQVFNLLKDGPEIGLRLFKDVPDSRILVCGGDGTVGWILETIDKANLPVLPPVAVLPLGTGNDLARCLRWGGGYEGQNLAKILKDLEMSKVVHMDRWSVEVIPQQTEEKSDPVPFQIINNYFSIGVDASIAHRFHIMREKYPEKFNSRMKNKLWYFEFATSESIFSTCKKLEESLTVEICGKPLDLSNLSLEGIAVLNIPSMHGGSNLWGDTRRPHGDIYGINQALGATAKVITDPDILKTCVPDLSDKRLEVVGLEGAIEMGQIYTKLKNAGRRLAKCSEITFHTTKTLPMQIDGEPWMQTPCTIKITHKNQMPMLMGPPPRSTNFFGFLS
Chain of DGKζ (Q13574 other isoform, or with tags, fused parts or gaps): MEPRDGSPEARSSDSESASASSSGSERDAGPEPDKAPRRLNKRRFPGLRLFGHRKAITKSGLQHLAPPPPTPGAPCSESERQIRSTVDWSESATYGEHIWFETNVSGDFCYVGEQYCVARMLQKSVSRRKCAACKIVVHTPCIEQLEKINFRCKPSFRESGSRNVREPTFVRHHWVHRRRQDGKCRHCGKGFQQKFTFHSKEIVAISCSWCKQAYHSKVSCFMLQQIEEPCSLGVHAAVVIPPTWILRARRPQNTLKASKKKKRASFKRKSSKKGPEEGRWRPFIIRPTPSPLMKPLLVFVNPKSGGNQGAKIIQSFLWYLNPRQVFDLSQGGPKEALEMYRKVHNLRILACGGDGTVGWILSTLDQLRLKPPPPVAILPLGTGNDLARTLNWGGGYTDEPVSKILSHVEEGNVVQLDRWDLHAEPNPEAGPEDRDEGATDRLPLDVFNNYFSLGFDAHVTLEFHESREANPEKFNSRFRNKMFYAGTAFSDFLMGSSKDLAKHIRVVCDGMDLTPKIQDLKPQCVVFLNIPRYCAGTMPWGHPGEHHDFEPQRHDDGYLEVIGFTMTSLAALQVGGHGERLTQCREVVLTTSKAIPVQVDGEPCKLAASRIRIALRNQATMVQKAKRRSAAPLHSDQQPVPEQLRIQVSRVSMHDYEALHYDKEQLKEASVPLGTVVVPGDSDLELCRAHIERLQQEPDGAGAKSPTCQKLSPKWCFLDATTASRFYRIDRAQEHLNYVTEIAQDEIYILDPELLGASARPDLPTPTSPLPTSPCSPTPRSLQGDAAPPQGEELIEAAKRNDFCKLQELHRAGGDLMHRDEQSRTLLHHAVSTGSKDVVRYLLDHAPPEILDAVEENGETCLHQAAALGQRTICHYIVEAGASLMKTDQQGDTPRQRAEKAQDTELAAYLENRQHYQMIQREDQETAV

With `CC[C@H]1CN(C(C)c2ccc(OC(F)F)cc2)[C@H](CC)CN1c1cc(=O)n(C)c2cn(CC#N)nc12` (single isomer, unassigned) [Compound A19a], the IC50 was found to be 130 nM against DGKζ and 22 nM on DGKα.
Regarding `CC(c1ccc2c(c1F)OC(C)(C)O2)N1C[C@H](C)N(c2cc(=O)n(C)c3cn(CC#N)nc23)C[C@H]1C` (stereo partly drawn) [Compound A69, 2-(7-((2S,5R)-4-(1-(4-fluoro-2,2-dimethylbenzo[d][1,3]dioxol-5-yl)ethyl)-2,5-dimethylpiperazin-1-yl)-4-methyl-5-oxo-4,5-dihydro-2H-pyrazolo[4,3-b]pyridin-2-yl)acetonitrile], the IC50 against DGKζ is 20 nM; against DGKα, 4730 nM.
Turning to `CCc1cn2nc(C(C)N3C[C@H](CC)N(c4cc(=O)n(C)c5cn(CC#N)nc45)C[C@H]3CC)ccc2n1` (single isomer, unassigned) [Compound A153a], the results for the IC50 on DGKζ and against DGKα were above 10000 nM and 2720 nM, respectively.
In the same order, the values of `CC[C@H]1CN(C(C)c2ccc(OC(C)C)cn2)[C@H](CC)CN1c1cc(=O)n(C)c2cn(CC#N)nc12` (single isomer, unassigned) [Compound A5la] are 138 nM and 26 nM.
As to `CC#CCn1cc2c(n1)c(N1C[C@@H](CC)N(C(C)c3ccc4nc(C)sc4c3F)C[C@@H]1C)cc(=O)n2C` (single isomer, unassigned) [Compound A116b], the IC50 against DGKζ is above 10000 nM; at DGKα, 21000 nM.
With `CC[C@H]1CN(C(C)c2ccc3ncc(Cl)n3n2)[C@H](CC)CN1c1cc(=O)n(C)c2cn(CC#N)nc12` (single isomer, unassigned) [Compound A167b], the values for the half-inhibitory concentration (IC50) against DGKζ and on DGKα were 23 nM and 219 nM, respectively.
As for `CC[C@H]1CN(C(C)c2ccn3ncc(F)c3c2)[C@H](CC)CN1c1cc(=O)n(C)c2cn(CC#N)nc12` (single isomer, unassigned) [Compound A165a], the IC50 turned out to be 12 nM against DGKζ and 96 nM against DGKα.
Consider `CC[C@H]1CN(C(C)c2cnc3c(c2)ncn3C)[C@H](CC)CN1c1cc(=O)n(C)c2cn(CC#N)nc12` (stereo partly drawn) [Compound A78, 2-(7-((2S,5R)-2,5-diethyl-4-(1-(3-methyl-3H-imidazo[4,5-b]pyridin-6-yl)ethyl)piperazin-1-yl)-4-methyl-5-oxo-4,5-dihydro-2H-pyrazolo[4,3-b]pyridin-2-yl)acetonitrile], for which the IC50 was determined as 1870 nM against DGKζ and 25000 nM against DGKα.
For `CC[C@H]1CN(C(C)c2ccc3c(C)cnn3c2)[C@H](CC)CN1c1cc(=O)n(C)c2cn(CC#N)nc12` (single isomer, unassigned) [Compound A204a] the same measures were 31 nM and 467 nM.
With `CC[C@H]1CN(C(C)c2ccc(C(=O)N(C)C)c(F)c2)[C@H](CC)CN1c1cc(=O)n(C)c2cn(CC#N)nc12` (single isomer, unassigned) [Compound A4b], the results for the IC50 against DGKζ and against DGKα were 3170 nM and 4840 nM, respectively.
With `CC[C@H]1CN(C(C)c2ccn3nc(C)cc3n2)[C@H](CC)CN1c1nc(=O)n(C)c2cn(CC#N)nc12` (single isomer, unassigned) [Compound A157b], the IC50 at DGKζ amounted to 166 nM; at DGKα, 183 nM.
For `CC[C@H]1CN(C(C)c2ccc(CS(C)(=O)=O)cc2)[C@H](CC)CN1c1cc(=O)n(C)c2cn(CC#N)nc12` (stereo partly drawn) [Compound A198, 2-(7-((2S,5R)-2,5-diethyl-4-(1-(4-((methylsulfonyl)methyl)phenyl)ethyl)piperazin-1-yl)-4-methyl-5-oxo-4,5-dihydro-2H-pyrazolo[4,3-b]pyridin-2-yl)acetonitrile] the same measures were 5560 nM and 91 nM.
For `CC[C@H]1CN(C(C)c2ccc(CN3CCC(OC)C3)cc2)[C@H](CC)CN1c1cc(=O)n(C)c2cn(CC#N)nc12` (single isomer, unassigned) [Compound A203b], the IC50 on DGKζ turned out to be 7610 nM; on DGKα, 11600 nM.
With `CC[C@H]1CN(C(C)c2ccc3nc(C)cn3n2)[C@H](CC)CN1c1nc(=O)n(C)c2cn(CC#N)nc12` (single isomer, unassigned) [Compound A150a], the IC50 at DGKζ was above 10000 nM; on DGKα, 7140 nM.
For `CC[C@H]1CN(C(C)c2ccc(C)c(C)n2)[C@H](CC)CN1c1cc(=O)n(C)c2cn(CC#N)nc12` (single isomer, unassigned) [Compound A54a] the same measures were 33 nM and 76 nM.
In the same order, the values of `CC[C@H]1CN(C(C)c2cn3ncccc3n2)[C@H](CC)CN1c1cc(=O)n(C)c2cn(CC#N)nc12` (stereo partly drawn) [Compound A180, 2-(7-((2S,5R)-2,5-diethyl-4-(1-(imidazo[1,2-b]pyridazin-2-yl)ethyl)piperazin-1-yl)-4-methyl-5-oxo-4,5-dihydro-2H-pyrazolo[4,3-b]pyridin-2-yl)acetonitrile] are 1180 nM and 2450 nM.
As for `CC[C@H]1CN(C(C)c2ccc3c(c2)OCO3)[C@H](CC)CN1c1cc(=O)n(C)c2cn(CC#N)nc12` (single isomer, unassigned) [Compound A68a], the IC50 against DGKζ is 49 nM; against DGKα it was 97 nM.
Consider `Cc1cc2nc(C(C)N3C[C@H](C)N(c4cc(=O)n(C)c5cn(CC#N)nc45)C[C@H]3C)ccc2s1` (stereo partly drawn) [Compound A155, 2-(7-((2S,5R)-2,5-dimethyl-4-(1-(2-methylthieno[3,2-b]pyridin-5-yl)ethyl)piperazin-1-yl)-4-methyl-5-oxo-4,5-dihydro-2H-pyrazolo[4,3-b]pyridin-2-yl)acetonitrile], for which the IC50 against DGKζ worked out at 74 nM; against DGKα it was 378 nM.
For `CC[C@H]1CN(C(C)c2ccc(CN3CCCC3)cc2)[C@H](CC)CN1c1cc(=O)n(C)c2cn(CC#N)nc12` (single isomer, unassigned) [Compound A26a] the same measures were 4090 nM and 1440 nM.
On to `CC[C@@H]1CN(c2cc(=O)n(C)c3cn(CC#N)nc23)[C@@H](C)CN1C(C)c1ccc2nc(C)sc2c1F` (single isomer, unassigned) [Compound A104b], for which the IC50 was determined as 220 nM on DGKζ and 18400 nM on DGKα.
In the case of `CC[C@H]1CN(C(C)c2ccc(OC)nc2)[C@H](CC)CN1c1cc(=O)n(C)c2cn(CC#N)nc12` (stereo partly drawn) [Compound A41, 2-(7-((2S,5R)-2,5-diethyl-4-(1-(6-methoxypyridin-3-yl)ethyl)piperazin-1-yl)-4-methyl-5-oxo-4,5-dihydro-2H-pyrazolo[4,3-b]pyridin-2-yl)acetonitrile], the results for the IC50 against DGKζ and on DGKα were 151 nM and 347 nM, respectively.
Take `CC[C@H]1CN(C(C)c2ccc3cncn3c2)[C@H](CC)CN1c1cc(=O)n(C)c2cn(CC#N)nc12` (single isomer, unassigned) [Compound A83b]: the IC50 is 1800 nM at DGKζ and 90 nM at DGKα.
For `CC[C@H]1CN(C(C)c2ccc(COC3CCOCC3)cc2)[C@H](CC)CN1c1cc(=O)n(C)c2cn(CC#N)nc12` (stereo partly drawn) [Compound A15, 2-(7-((2S,5R)-2,5-diethyl-4-(1-(4-(((tetrahydro-2H-pyran-4-yl)oxy)methyl)phenyl)ethyl)piperazin-1-yl)-4-methyl-5-oxo-4,5-dihydro-2H-pyrazolo[4,3-b]pyridin-2-yl)acetonitrile] the same measures were 219 nM and 193 nM.
As for `CC[C@H]1CN(C(C)c2ccn3nc(C)c(F)c3c2)[C@H](CC)CN1c1cc(=O)n(C)c2cn(CC#N)nc12` (single isomer, unassigned) [Compound A169a], the values for the IC50 against DGKζ and against DGKα were 211 nM and 3210 nM, respectively.
With `CC[C@H]1CN(C(C)c2ccc(OC)cc2C)[C@H](CC)CN1c1cc(=O)n(C)c2cn(CC#N)nc12` (stereo partly drawn) [Compound A14, 2-(7-((2S,5R)-2,5-diethyl-4-(1-(4-methoxy-2-methylphenyl)ethyl)piperazin-1-yl)-4-methyl-5-oxo-4,5-dihydro-2H-pyrazolo[4,3-b]pyridin-2-yl)acetonitrile], the IC50 at DGKζ turned out to be 63 nM; at DGKα, 8410 nM.
As for `CC[C@H]1CN(C(C)c2ccc(C3CC3)nc2F)[C@H](CC)CN1c1cc(=O)n(C)c2cn(CC#N)nc12` (single isomer, unassigned) [Compound A45b], the IC50 against DGKζ was 865 nM; against DGKα, 728 nM.
For `CC[C@H]1CN(C(C)c2ccc(C3CC3)nc2)[C@H](CC)CN1c1nc(=O)n(C)c2cn(CC#N)nc12` (single isomer, unassigned) [Compound A127a] the same measures were 71 nM and 357 nM.

A word on the IC50: it is the concentration that inhibits the measured activity by half. High values mean a need for much substance, low ones inhibition by little substance.
